Measured values reported in PubChem BioAssay AID179 (DTP/NCI, 2004).
Where “and” joins values, the source holds several entries; their conditions need not be identical. Equal entries are not always repeated. Calls of active or inactive are those of the source.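 The calls were made as follows: active = compounds giving half or more protection of infected cells from virus-caused growth loss, again on retest; inactive = the rest.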

Test system: CEM cells HIV-1 protection, formazan growth assay
Assay: NCI AIDS Antiviral Assay
Settings: for IC50: measured here: growth of uninfected CEM cells
Summary of the method: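 Steps: treat uninfected and HIV-1-infected human CEM cells at five drug levels; quantify growth by soluble formazan; retest any compound reaching 50% protection; classify actives from the retest.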

Row | Compound | outcome | EC50 | IC50
1 | CCOC(=O)N(c1ccccc1)N(CC)C(=O)/C(C)=N/Nc1ccc([N+](=O)[O-])cc1 | inactive |  | 
2 | CC(NC1=NCCO1)c1ccccc1Cl (stereo not given) | inactive |  | 
3 | CNc1nc(SC)nc2c1c(N)nn2C |  | > 200 µM | > 200 µM
4 | CCN(CCCl)CCCCCNc1c2ccccc2nc2ccc(OC)cc12 | inactive |  | 
5 | O=C1C(Cl)=C(Cl)C(=O)N1c1ccc(F)cc1 | inactive |  | 
6 | CC1C(c2ccccc2)SC(=N)N1C (stereo not given) |  | > 417 µM | 257 µM
7 | CC1=C(/C=C/C(C)=C/C=C/C(C)=C/C(=O)O)C(C)(C)CCC1 | inactive |  | 
8 | CC1CC(C)(C)NCCNC(C)CC(C)(C)NCCN1 (stereo not given) |  | 195 µM | > 200 µM
9 | O=c1cc(Cl)c(=O)n(-c2ccccc2)[nH]1 |  | > 1120 µM | 1070 µM
10 | CCSSC12CCCN1C(=O)C(C)N(C)C2=O (stereo not given) |  | > 200 µM | 20.4 µM
11 | COc1ccc(/C=C2/Cc3cccc4c([N+](=O)[O-])ccc2c34)cc1 |  | > 100 µM | > 100 µM
12 | CC(=O)N(C)c1ccc(/C=C2\C=Cc3ccccc32)cc1 |  | > 49 µM | 12.3 µM
13 | COc1ccc(C2=C(Cl)c3cc(OC)c(OC)cc3C2Cl)cc1 (stereo not given) | inactive |  | 
14 | S=C(Nc1ccc2c(c1)oc1ccccc12)c1cccnc1 |  | 67.6 µM | > 200 µM
15 | O=C1c2cccc(O)c2C(=O)c2c(O)cccc21 |  | > 30.2 µM | > 30.2 µM
16 | CCOC(=O)c1sc(C(=O)OCC)c2c1-c1cccc3cccc-2c13 |  | > 200 µM | > 200 µM
17 | S=c1oc(CCCCCCCCc2nn(CNc3ccccc3)c(=S)o2)nn1CNc1ccccc1 |  | > 200 µM | > 200 µM
18 | CCCCCCc1cc(C(=O)Nc2ccc(Cl)cc2)nc(=S)[nH]1 |  | > 708 µM | 479 µM
19 | Cc1ccc(-c2cc(-c3ccco3)c(C#N)c(=O)n2C2OC(CO)C(O)C(O)C2O)cc1 (stereo not given) |  | 25.7 µM | 81.3 µM
20 | CCOC(=O)c1cnc2c(ccc3ncccc32)c1NCCCN(CC)CC |  | > 69.2 µM | 9.55 µM
21 | O=C(NC1C2CC3CC(C2)CC1C3)/C(Cl)=C1/Sc2ccccc2NC1=O (stereo not given) |  | > 5.13 µM | > 5.13 µM
22 | O=C1c2c(ccc3c2CCCC3)CC12Cc1ccccc1C2 |  | > 200 µM | 22.4 µM
23 | Cc1nc([N+](=O)[O-])cn1CC(=N)N |  | > 1120 µM | > 1120 µM

Row | Compound | outcome | EC50 | IC50
24 | O=C(c1ccccc1)c1nc2c(Cl)ccc(Cl)c2cc1C(Br)Br |  | > 2.19 µM | > 2.19 µM
25 | O=C(NO)c1ccc([N+](=O)[O-])cc1 |  | > 200 µM | 29.5 µM
26 | COC(=O)C1=CC2C(=O)OC1C1C(=O)NC(=O)C21 (stereo not given) | inactive |  | 
27 | COc1cc([C@@H]2c3cc(O)c(OC)cc3C=C(C(N)=O)[C@H]2C(N)=O)ccc1O |  | > 0.2 µM | 0.0102 µM
28 | O=C1OC(=O)C2=C1C1C=CC2O1 |  | > 1070 µM | 295 µM
29 | N#Cc1c(-c2ccc([N+](=O)[O-])cc2)c(C#N)c(=O)n(NS(=O)(=O)c2ccccc2)c1S |  | > 200 µM | 16.6 µM
30 | CC1NC(=O)CC(c2ccccc2)N(N=O)C1c1ccccc1 (stereo not given) | inactive |  | 
31 | CC(=O)OC1CC2C(C)(C)C(=O)C=C[C@]2(C)C2CCC3(C)C(=CCC3[C@H](CO)C[C@H](O)C(=O)C(C)(C)O)[C@]12C (stereo not given in full) |  | > 47.9 µM | 18.6 µM
32 | COc1ccc(C(=O)c2ccc(OC)c(S(=O)(=O)N(C)C)c2)cc1S(=O)(=O)N(C)C |  | > 79.4 µM | > 79.4 µM
33 | Cc1ccc(S(=O)(=O)OCC23CCC(C4CC42)C2CC23)cc1 (stereo not given) |  | > 100 µM | 77.6 µM
34 | CC(C)(C)C1=C(Br)C(C(C)(C)C)OP1(=O)O (stereo not given) |  | > 100 µM | > 100 µM
35 | Cc1c(C(=O)O)c2cc3ccccc3cc2c(=O)n1C |  | > 200 µM | > 200 µM
36 | N#CC(C#N)=Cc1cc(Cl)ccc1O |  | > 200 µM | 29.5 µM
37 | CCN(CC)CCn1c(C)nc2c1C(=O)c1nc(C)n(CCN(CC)CC)c1C2=O |  | > 200 µM | 5.75 µM
38 | N.N.N.N.O=S([O-])[O-].[Co+3].[N-]=[N+]=[N-] | inactive |  | 
39 | Nc1nc(NCCOCP(=O)(O)O)c(C=O)c(=O)[nH]1 |  | > 200 µM | > 200 µM
40 | CCOC(=O)C(C(=O)OCC)=C1SC(=Nc2ccccc2)C(=Nc2ccccc2)N1c1ccccc1 |  | > 200 µM | 70.8 µM
41 | Clc1ccc(CNc2nc(Cl)c3[nH]cnc3n2)cc1Cl |  | > 200 µM | 22.9 µM
42 | OC1=CN=C(c2ccccc2)Oc2ccccc21 |  | > 15.8 µM | > 15.8 µM
43 | CCOC(=O)c1cncc(C#N)c1 |  | > 200 µM | 105 µM
44 | Cn1cc(NC(=O)c2cc(NC(=O)CCCCCCCCCCC(=O)Nc3cc(C(=O)Nc4cc(C(=O)NCCC(=N)N)n(C)c4)n(C)c3)cn2C)cc1C(=O)NCCC(=N)N |  | 4.07 µM | 7.76 µM
45 | CCN(CC)CCN1C(=O)c2cccc3c(N)c(OC)cc(c23)C1=O |  | > 200 µM | 3.39 µM
46 | Cc1ccc(S(=O)(=O)Sc2ccccc2)cc1 |  | > 135 µM | 21.9 µM

Row | Compound | outcome | EC50 | IC50
47 | O=C1[C@H]2ON(c3ccccc3)C(c3ccco3)[C@H]2C(=O)N1c1ccc(Cc2ccc(N3C(=O)[C@@H]4ON(c5ccccc5)C(c5ccco5)[C@@H]4C3=O)cc2)cc1 (stereo not given in full) |  | > 7.08 µM | > 7.08 µM
48 | O=C(O)CCCCCCCc1cccc(OCCO)c1 |  | > 200 µM | > 200 µM
49 | OC(O)(C(F)(F)F)C(F)(F)F |  | > 200 µM | > 200 µM
50 | Cc1cn(C2CC(N(O)C(N)=O)C(CO)O2)c(=O)[nH]c1=O (stereo not given) |  | > 200 µM | > 200 µM and 107 µM
51 | CC(=O)OCCCOCn1c(Cc2ccccc2)c(C)c(=O)[nH]c1=O |  | 100 µM | > 200 µM
52 | O=C(CCCC(=O)Nc1ccc(Cl)cc1Cl)CC(=O)c1ccc2ccccc2c1 |  | > 417 µM | > 417 µM
53 | CSC1=NN(C(C)=O)C(C(OC(C)=O)C(OC(C)=O)C(OC(C)=O)C(COC(C)=O)OC(C)=O)S1 (stereo not given) | inactive |  | 
54 | CC(C)(C)OC(=O)NCCNCCNc1ccccc1 | inactive |  | 
55 | Cc1ccc(Nc2nc(=O)[nH]c(=O)[nH]2)cc1N=[N+]=[N-] |  | > 200 µM | > 200 µM
56 | COc1cccc2c1C1=CC(=O)CCC1C(C)(C)O2 (stereo not given) |  | > 195 µM | 110 µM
57 | N#Cc1cccc(N2C(=O)c3c(c(-c4ccccc4)c(-c4ccc(Sc5ccc(-c6c(-c7ccccc7)c7c(c(-c8ccccc8)c6-c6ccccc6)C(=O)N(c6cccc(C#N)c6)C7=O)cc5)cc4)c(-c4ccccc4)c3-c3ccccc3)C2=O)c1 |  | > 12 µM | > 12 µM
58 | O=c1sc2c(s1)-c1sc(=O)sc1SS2 |  | > 77.6 µM | 51.3 µM
59 | CC1=C(C(=O)Nc2ccccc2C)C(c2ccc(C3C(C(=O)Nc4ccccc4C)=C(C)NC(C)=C3C(=O)Nc3ccccc3C)cc2)C(C(=O)Nc2ccccc2C)=C(C)N1 | inactive |  | 
60 | COc1ccc2c(c1)C(N)=C(c1ccccc1)C2=O |  | > 200 µM | 75.9 µM
61 | COC(=O)[C@@H](Cc1ccccc1)N1O[C@]12CCCC[C@@H]2NC(=O)OC(C)(C)C (stereo not given in full) |  | > 200 µM | 32.4 µM
62 | C=CCOC1=C2CC[C@H](O)[C@@]2(C)CCC1=O | inactive |  | 
63 | O=C=NCCCCCCN1C(=O)N2C(c3ccccc3)N(CCCCCCN=C=O)C(=O)N2C1c1ccccc1 (stereo not given) | inactive |  | 
64 | CC(=O)C(=[N+]=[N-])C(=O)N1CCOC1=O |  | > 200 µM | > 200 µM
65 | C[C@H]1N(O)CC2OC(n3ccc(=O)[nH]c3=O)C(O)C21O (mixture of isomers) |  | > 200 µM | > 200 µM
66 | CC(=O)NC(CCC(=O)c1ccc(Cl)cc1)C(=O)O (stereo not given) |  | > 200 µM | > 200 µM
67 | Cc1ccc2c(c1)C(=O)C1(C2)Cc2cccc(C)c2C1=O (stereo not given) |  | > 200 µM | > 200 µM
68 | N#C/C(=C\NC(N)=S)C(=O)c1ccc2ccccc2c1 | inactive |  | 
69 | COc1cc2c(cc1OC)-c1nc(N)sc1CC2 |  | > 38 µM | > 38 µM

Row | Compound | outcome | EC50 | IC50
70 | O=C1C(=O)N(C2C3CC4CC(C3)CC2C4)C(=O)C(=O)C1c1nc2ccccc2o1 (stereo not given) |  | > 91.2 µM | 52.5 µM
71 | Cn1c2ccccc2c(=O)c2c(O)cc3c(c21)CC(C1(C)CO1)O3 (stereo not given) |  | > 6.17 µM | 0.209 µM
72 | c1ccc(N=C2C(=Nc3ccccc3)N(C3CCCCC3)C(=NC3CCCCC3)N2c2ccccc2)cc1 |  | > 200 µM | > 200 µM
73 | CC(C)(C)c1cc(CCC(=O)Nc2ccc(Cl)cc2)[nH]c(=S)n1 |  | > 513 µM | > 513 µM
74 | CCCN=c1ssc(=O)n1CCC |  | > 200 µM | 11.2 µM
75 | O=C1c2ccccc2S(=O)(=O)c2ccccc21 |  | 129 µM | 501 µM
76 | O=C(n1[nH]c(=O)n(-c2ccc([N+](=O)[O-])cc2)c1=O)C(Cl)(Cl)Cl |  | > 200 µM | > 200 µM
77 | COc1cc(-c2oc3c(OC)c(OC)cc(O)c3c(=O)c2OC)ccc1O |  | > 100 µM | 12.6 µM and 3.55 µM
78 | CC1(C)C(=O)C(C)(C)C1=NNC(N)=S |  | > 417 µM | 263 µM
79 | C=C(C)C1CC2C(C)=C(OC(C)=O)C1n1c(=O)c3cc4ccccc4cc3c(=O)n12 (stereo not given) |  | > 46.8 µM | > 46.8 µM
80 | COc1ccc(NC2=NCCO2)c2ccccc12 |  | > 200 µM | 46.8 µM
81 | CCOc1ccccc1NC(=O)CC1Sc2ccccc2NC1=O (stereo not given) |  | > 55 µM | > 55 µM
82 | CC1Cc2c(N)nc(N3CCOCC3)nc2NC1=O (stereo not given) | inactive |  | 
83 | CC1(C)CC(=O)C(/C=N/C(N)=S)=C(O)C1 |  | > 200 µM | > 200 µM
84 | CC(CC[C@@H](O)C(C)(C)O)C1[C@@H](O)CC2(C)C3CC(O)C4C(C)(C)[C@@H](OC5OC(CO)C(O)C(O)C5O)CC[C@@]45C[C@@]35CC[C@]12C (stereo not given in full) |  | > 200 µM | > 200 µM
85 | CCOC(=O)CC(c1ccccc1)C(C)(C(=O)OCC)C(=O)OCC (stereo not given) | inactive |  | 
86 | O=C(N/C(=C\c1cccc([N+](=O)[O-])c1)c1nc2c3c(ccc2[nH]1)C(=O)c1ccccc1C3=O)c1ccccc1 | inactive |  | 
87 | N#C/C(=C\c1ccc(Cl)cc1)c1ccc(C(=O)O)cc1 |  | > 200 µM | 110 µM
88 | COCCCN1C(=O)C2c3[nH]c4ccccc4c3C3CCC(C(C)(C)C)CC3C2C1=O (stereo not given) |  | > 200 µM | 31.6 µM
89 | C#CCCOC(=O)CC1=C(C)/C(=C/c2ccc(S(C)=O)cc2)c2ccc(F)cc21 (stereo not given) |  | > 200 µM | 14.8 µM
